The record followed here is patent US20200392150A1, “Diaryl-B-Lactam Compound and Preparation Method and Pharmaceutical Use Thereof” (Fudan University, priority 2016, published 2020).

A word on the IC50: it is the concentration needed to halve the response being measured.

Assay type in all cases: cell-based, human
One experiment deals with SKOV3. Put plainly: In vitro cell growth inhibition assay (MTT). Conditions: SK-OV-3; SKOV-3 human ovarian cancer cell line, 48 h, MTT; read-out: IC50 SKOV3. Put shortly:
(§1)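 SKOV3, A2780 or HeLa cells were seeded at 5000 per well, allowed to adhere overnight, then treated 48 h with compounds; 0.2% DMSO served as control. IC50 values came from growth inhibition rates.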

For the next experiment, the system named is Hela. Put plainly: In vitro cell growth inhibition assay (MTT). To be noted: Hela human cervical cancer cell line, 48 h, MTT; read-out: IC50 Hela. In short, it runs like this: as §1
Another experiment relates to A2780. In words: In vitro cell growth inhibition assay (MTT). To be noted: A2780 human ovarian cancer cell line, 48 h, MTT; read-out: IC50 A2780. Put shortly:
as §1

Another experiment concerns MDA-MB-231. Put plainly: In vitro cell growth inhibition assay (MTT). To be noted: MDA-MB-231 human breast cancer cell line, 48 h, MTT; read-out: IC50 MDA-MB-231. Put shortly: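 Following overnight adherence of 5000 cells per well, compounds or 0.2% DMSO were applied for 48 h. Medium was then swapped for 0.5 mg/mL MTT medium (4 h, 37° C), crystals dissolved in DMSO, and plates read at 540 nm.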

Another experiment has as its system tubulin in Hela cells. Put plainly: Immunoblotting analysis of polymerized/depolymerized tubulin. To be noted: 6 h. The procedure: After being treated with diluent (0.2% DMSO), tested compound, CA-4 or PTX for 6 h, Hela cells were lysed with microtubulestabilizing buffer, containing 100 mM PIPES, pH 6.8, 1 mM MgCl2, 2 mM EGTA, 0.5% NP-40, 2 M glycerol, 5 μM PTX and protease inhibitors cocktail (Roche), and the lysate was centrifuged at 15,000 rpm for 15 min. Supernatant containing depolymerized tubulin was carefully collected, whereas pellet (polymerized tubulin) was further dissolved in SDS-lysis buffer (Beyotime, China). Equal amounts of supernatant and dissolved pellet were subjected to immunoblotting analysis as described above using atubulin antibody (Proteintech).

In a further experiment the test system is tubulin in SKOV-3 cells. In words: Immunofluorescent analysis of tubulin morphology. Conditions: 24 h. The protocol:
After treatment with diluent (0.2% DMSO) or tested compounds at indicated concentrations for 24 h, SKOV-3 cells were fixed with methanol, permeabilized with 0.1% Triton X-100 in PBS and blocked by goat serum. Then the cells were incubated with a-tubulin antibody at 4° C. overnight, followed by incubation with Alexa 488 labeled secondary antibody (Jackson ImmunoResearch) at RT for 1 h. After being stained with DAPI, cells were examined and photographed with a Leica SP5 co-focal fluorescence microscope.

For `C=C1C(=O)N(c2cc(OC)c(OC)c(OC)c2)[C@H]1c1ccc(OC)c(O)c1` [Compound 1, (S)-4-(3-hydroxy-4-methoxyphenyl)-3-methylene-1-(3,4,5-trimethoxyphenyl)azetidin-2-one], the IC50 in the experiment on SKOV3 turned out to be 0.128 µM; with Hela, 0.186 µM; with A2780, 0.143 µM; with MDA-MB-231 it was 0.234 µM. Besides, in the experiment on tubulin in Hela cells, the “polymerized tubulin (immunoblotting)” value is recorded as “significantly inhibit tubulin aggregation”. In addition, in the experiment with tubulin in SKOV-3 cells, the “tubulin assembly (immunofluorescence)” value is “significantly inhibit tubulin aggregation”.
